Assay [1] addresses T1, Short transient receptor potential channel 3 (Homo sapiens, UniProt Q13507).
T1 sequence (Q13507 whole entry): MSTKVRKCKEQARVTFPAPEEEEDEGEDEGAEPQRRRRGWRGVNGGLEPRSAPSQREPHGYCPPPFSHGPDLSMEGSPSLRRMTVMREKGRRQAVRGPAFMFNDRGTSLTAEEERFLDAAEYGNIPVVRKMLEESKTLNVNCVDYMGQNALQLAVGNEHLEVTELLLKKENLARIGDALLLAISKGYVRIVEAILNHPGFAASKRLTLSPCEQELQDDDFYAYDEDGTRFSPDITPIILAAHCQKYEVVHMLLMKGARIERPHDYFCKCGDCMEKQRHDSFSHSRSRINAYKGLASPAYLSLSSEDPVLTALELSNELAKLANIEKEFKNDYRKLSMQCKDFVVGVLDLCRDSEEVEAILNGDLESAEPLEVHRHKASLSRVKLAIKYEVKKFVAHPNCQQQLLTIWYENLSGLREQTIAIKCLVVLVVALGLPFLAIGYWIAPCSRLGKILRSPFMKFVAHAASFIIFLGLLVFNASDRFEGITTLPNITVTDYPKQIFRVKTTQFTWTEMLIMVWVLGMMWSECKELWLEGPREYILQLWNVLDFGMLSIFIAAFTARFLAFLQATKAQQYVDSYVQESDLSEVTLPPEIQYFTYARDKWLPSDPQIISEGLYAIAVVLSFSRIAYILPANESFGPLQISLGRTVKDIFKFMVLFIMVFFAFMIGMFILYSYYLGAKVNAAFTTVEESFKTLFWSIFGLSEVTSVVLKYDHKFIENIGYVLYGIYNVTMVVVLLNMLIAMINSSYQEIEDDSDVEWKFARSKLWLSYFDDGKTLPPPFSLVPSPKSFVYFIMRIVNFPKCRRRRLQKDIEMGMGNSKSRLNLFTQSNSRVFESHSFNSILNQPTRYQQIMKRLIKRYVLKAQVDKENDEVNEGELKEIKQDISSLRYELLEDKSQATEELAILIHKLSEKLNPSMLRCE
Briefly: Inhibition of YFP-tagged human TRPC3 expressed in thapsigargin treated HEK293 cells assessed as reduction in amix-induced calcium level by fluo-4 dye based fluorescence assay. The class given is cell-based.

Assay [2] deals with Transient receptor potential cation channel subfamily V member 1 (Rattus norvegicus, UniProt O35433). The assay can be described thus: Inhibition of CFP-tagged rat TRPV1 expressed in HEK293 cells assessed as reduction in calcium level by fluo-4 dye based fluorescence assay. The format is cell-based.
Transient receptor potential cation channel subfamily V member 1, sequence (O35433 whole entry): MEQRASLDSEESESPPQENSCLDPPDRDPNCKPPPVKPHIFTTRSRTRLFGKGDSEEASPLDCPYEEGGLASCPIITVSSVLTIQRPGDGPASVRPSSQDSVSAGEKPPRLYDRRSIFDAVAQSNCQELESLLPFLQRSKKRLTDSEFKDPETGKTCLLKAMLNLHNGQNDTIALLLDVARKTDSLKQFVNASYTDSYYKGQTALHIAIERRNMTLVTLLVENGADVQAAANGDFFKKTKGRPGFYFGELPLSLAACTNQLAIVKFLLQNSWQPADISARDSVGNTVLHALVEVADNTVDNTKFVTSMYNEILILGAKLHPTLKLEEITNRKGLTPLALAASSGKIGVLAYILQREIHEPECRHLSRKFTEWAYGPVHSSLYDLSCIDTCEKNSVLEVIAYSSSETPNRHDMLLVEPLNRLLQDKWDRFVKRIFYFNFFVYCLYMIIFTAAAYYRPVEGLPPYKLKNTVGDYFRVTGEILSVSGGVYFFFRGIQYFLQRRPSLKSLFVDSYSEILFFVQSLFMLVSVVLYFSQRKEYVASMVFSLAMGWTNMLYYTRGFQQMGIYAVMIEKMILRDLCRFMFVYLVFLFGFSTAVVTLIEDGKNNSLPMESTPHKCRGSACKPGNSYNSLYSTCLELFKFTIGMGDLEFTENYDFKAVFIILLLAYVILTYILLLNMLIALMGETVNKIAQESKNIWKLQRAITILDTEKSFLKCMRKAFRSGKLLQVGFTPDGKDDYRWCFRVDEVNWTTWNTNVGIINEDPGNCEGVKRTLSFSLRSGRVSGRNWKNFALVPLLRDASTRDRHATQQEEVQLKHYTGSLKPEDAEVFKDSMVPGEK
The target in assay [3] is Transient receptor potential cation channel subfamily V member 2 (Rattus norvegicus, UniProt Q9WUD2). Briefly: Inhibition of YFP-tagged rat TRPV2 expressed in HEK293 cells assessed as reduction in calcium level by fluo-4 dye based fluorescence assay. The class given is cell-based.
Transient receptor potential cation channel subfamily V member 2, sequence (Q9WUD2 whole entry): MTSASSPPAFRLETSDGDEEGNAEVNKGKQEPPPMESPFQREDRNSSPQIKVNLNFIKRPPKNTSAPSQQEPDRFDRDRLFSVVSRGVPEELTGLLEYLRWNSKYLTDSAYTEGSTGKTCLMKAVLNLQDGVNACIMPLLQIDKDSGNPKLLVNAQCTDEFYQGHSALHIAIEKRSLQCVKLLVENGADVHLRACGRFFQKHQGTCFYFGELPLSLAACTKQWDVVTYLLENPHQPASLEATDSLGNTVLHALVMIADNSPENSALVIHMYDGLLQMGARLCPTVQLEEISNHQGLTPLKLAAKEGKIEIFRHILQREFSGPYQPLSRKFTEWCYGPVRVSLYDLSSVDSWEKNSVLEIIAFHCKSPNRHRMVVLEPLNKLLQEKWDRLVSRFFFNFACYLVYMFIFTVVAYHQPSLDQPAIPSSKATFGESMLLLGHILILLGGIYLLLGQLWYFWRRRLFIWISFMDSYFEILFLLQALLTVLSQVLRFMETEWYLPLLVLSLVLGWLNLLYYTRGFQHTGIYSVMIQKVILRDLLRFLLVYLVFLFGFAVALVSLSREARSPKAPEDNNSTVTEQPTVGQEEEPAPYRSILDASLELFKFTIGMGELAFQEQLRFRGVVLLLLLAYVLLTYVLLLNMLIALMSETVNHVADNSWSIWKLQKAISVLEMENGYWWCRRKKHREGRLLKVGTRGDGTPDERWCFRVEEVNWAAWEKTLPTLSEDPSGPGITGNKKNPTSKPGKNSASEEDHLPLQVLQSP
In assay [4] the target is Heat sensitive channel TRPV3 (Rattus norvegicus, UniProt Q4QYD9). Briefly: Inhibition of YFP-tagged rat TRPV3 expressed in HEK293 cells assessed as reduction in calcium level by fluo-4 dye based fluorescence assay. The format is cell-based.
Heat sensitive channel TRPV3, sequence (Q4QYD9 whole entry): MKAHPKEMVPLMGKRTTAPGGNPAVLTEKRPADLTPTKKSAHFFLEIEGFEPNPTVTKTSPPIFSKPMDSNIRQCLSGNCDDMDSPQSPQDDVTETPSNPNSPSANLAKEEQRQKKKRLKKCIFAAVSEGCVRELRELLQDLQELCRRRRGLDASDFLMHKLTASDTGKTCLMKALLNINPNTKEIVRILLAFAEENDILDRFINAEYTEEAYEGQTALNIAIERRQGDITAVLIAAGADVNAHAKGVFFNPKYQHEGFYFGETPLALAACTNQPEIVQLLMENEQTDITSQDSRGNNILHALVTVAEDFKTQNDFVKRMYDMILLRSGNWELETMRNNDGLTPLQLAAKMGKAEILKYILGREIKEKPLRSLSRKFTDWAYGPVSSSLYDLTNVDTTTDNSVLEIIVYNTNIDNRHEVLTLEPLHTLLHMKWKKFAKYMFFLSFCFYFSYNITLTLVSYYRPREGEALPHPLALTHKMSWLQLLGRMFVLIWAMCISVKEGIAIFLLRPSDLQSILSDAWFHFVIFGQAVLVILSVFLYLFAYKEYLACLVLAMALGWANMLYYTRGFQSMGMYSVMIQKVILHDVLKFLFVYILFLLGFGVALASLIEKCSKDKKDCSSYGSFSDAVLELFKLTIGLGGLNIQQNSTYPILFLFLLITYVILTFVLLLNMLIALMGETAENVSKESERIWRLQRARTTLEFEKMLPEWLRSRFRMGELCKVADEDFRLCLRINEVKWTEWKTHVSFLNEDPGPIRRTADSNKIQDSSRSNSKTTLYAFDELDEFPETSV
For assay [5], the species on record is Mus musculus. Briefly: Selectivity ratio of IC50 for YFP-tagged mouse TRPC7 expressed in thapsigargin treated HEK293 cells to IC50 for mouse TRPC5 expressed in thapsigargin treated HEK293/TREx cells. The class given is cell-based.
For assay [6], the species on record is Mus musculus. The assay can be described thus: Selectivity ratio of IC50 for YFP-tagged mouse TRPC4 beta expressed in thapsigargin treated HEK293 cells co-expressing M3 receptor to IC50 for mouse TRPC5 expressed in thapsigargin treated HEK293/TREx cells. The class given is cell-based.
Assay [7] has as its target T2, Short transient receptor potential channel 5 (Mus musculus, UniProt Q9QX29).
T2 sequence (Q9QX29 whole entry): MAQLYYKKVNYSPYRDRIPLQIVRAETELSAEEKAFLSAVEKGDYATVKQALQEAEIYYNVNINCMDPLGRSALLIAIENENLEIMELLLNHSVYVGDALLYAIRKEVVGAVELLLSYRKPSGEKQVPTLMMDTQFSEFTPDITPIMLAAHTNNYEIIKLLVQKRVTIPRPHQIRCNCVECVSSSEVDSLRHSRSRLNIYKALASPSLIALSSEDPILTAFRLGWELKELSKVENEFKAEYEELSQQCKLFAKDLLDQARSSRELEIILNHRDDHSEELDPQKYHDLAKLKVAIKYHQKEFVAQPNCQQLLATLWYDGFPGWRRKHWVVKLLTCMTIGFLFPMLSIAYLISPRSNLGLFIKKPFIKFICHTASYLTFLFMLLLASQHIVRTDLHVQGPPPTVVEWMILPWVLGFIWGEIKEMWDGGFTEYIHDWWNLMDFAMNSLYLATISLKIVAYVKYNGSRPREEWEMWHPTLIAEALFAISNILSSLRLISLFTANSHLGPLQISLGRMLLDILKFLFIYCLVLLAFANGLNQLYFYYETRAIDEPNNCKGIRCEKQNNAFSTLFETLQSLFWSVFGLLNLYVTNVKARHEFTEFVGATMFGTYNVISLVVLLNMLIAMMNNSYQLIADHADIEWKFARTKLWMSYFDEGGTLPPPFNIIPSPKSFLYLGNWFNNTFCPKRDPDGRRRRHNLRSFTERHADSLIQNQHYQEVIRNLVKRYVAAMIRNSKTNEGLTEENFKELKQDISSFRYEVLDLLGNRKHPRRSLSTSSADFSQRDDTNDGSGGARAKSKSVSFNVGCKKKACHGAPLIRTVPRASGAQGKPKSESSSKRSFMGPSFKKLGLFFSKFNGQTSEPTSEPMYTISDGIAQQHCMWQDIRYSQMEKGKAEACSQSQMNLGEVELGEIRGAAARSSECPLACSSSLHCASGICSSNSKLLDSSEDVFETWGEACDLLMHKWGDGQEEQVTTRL
Briefly: Inhibition of mouse TRPC5 by FLIPR assay.

Structures are written as SMILES.

Regarding `Clc1ccc(Cn2c(CN3CCCC3)nc3ccccc32)cc1` [CLEMIZOLE], the IC50 is 9.1 µM in assay [1], greater than 20 µM in assay [2], greater than 20 µM in assay [3] and greater than 20 µM in assay [4]. In addition, the Ratio IC50 stood at 10 in the assay listed under Mus musculus [5] and 6 in the assay listed under Mus musculus [6].
`N#Cc1ccc(O[C@@H]2c3ccccc3C[C@H]2N2CCC[C@@H](N)C2)c(Cl)c1` showed an IC50 in assay [7] greater than 10 µM.

(Values after ChEMBL document CHEMBL4376804, “Review of Transient Receptor Potential Canonical (TRPC5) Channel Modulators and Diseases” (J Med Chem, 2019).)
